According to patent US20250017888A1, “COMPOUNDS FOR TREATING DISEASES ASSOCIATED WITH HYALURONAN OVERPRODUCTION” (THE ROYAL VETERINARY COLLEGE, priority 2021, published 2025):

Key:
chondrosarcoma cells = test: Uptake of flavonoids into chondrosarcoma cells by intracellular fluorescence; format: cell-based; details: concentration dependence, FIG. 2A
Experimental: Confluent monolayers of chondrosarcoma cells on 96 well microtiter plates were incubated with 100 μM solutions of flavonoids in serum-free Quantum medium. Changes in fluorescence were monitored from the bottom of the wells at excitation and emission wavelengths of 340 nm and 450 nm for xanthohumol and at 440 nm and 530 nm for quercetin, respectively.
Flavonoids are weakly fluorescent in aqueous buffer, but greatly enhance the fluorescence in the presence of proteins (Sengupta, B. and Sengupta, P. K., Biochem. Biophys. Res. Commun., 2002, 299, 400-403). This property was used to follow the uptake of quercetin and xanthohumol into chondrosarcoma cells.

bovine cartilage slices = test: Proteoglycan shedding from bovine cartilage slices; format: cell-based; details: Interleukin induced, one week of incubation; compared to unmodified xanthohumol
Experimental: Hyaluronan overproduction causes massive shedding of proteoglycans from cartilage. Bovine cartilage slices were cultivated in organ culture and osteoarthritic reactions were induced by addition on Interleukin and increasing concentrations of xanthohumol-betaine. The amounts of proteoglycan were determined in the cartilage slices and in the medium after one week of incubation.

Str/ort mice [1] = test: Gait analysis (treadmill, Digigait) in Str/ort mice; format: in vivo, mouse
Experimental: At 10-13 weeks of age, 21 male Str/ort mice (n=7/group) were assigned randomly to vehicle, hylin-betaine and xantho-betaine groups and were treated intraperitoneally 18 weeks with either vehicle (5% DMSO in 95% peanut oil), 50 mg/kg compound of Example 1 (“hylin-betaine”) in 5% DMSO and 95% peanut oil or 50 mg/kg compound of Example 2 (“xantho-betaine”) in 5% DMSO and 95% peanut oil.
Gait was monitored using a treadmill-based video system (DigigaitTM system) in three treatment groups of mice at three time point, week 1, week 9 and week 18 of treatment. The number of mice was 7, 7 and 5 in groups 1, 2 and 3, respectively.
[…] gait descriptors were used for the analyses. Thirty-four descriptors were obtained directly from the software of the system in the 4 limbs (LF: left front; RF: right front; LR: left rear; RR: right rear). All the others (143) were calculated indexes from gait measurements including swing, stance, brake, propel and stride times, stride length, frequency and coefficient of variation, paw area and paw angle and the variability of those two traits, the coefficient of variation of swing duration mid line distance, and minimum and maximum dAdT. The ratios of times were calculated in the 4 limbs: Brake, Propel, and Swing times relative to Stance and Stride times, Stance/Swing and Stance/Stride. In addition, the following additional indexes were considered:
In order to investigate whether there were differences among groups for each descriptor at the three experimental dates, an ANOVA was performed using data corresponding to each descriptor and date. Bonferroni correction was applied to counteract the problem of multiple comparisons.
A t-test analysis was also performed comparing only two groups at a time. In order to assess whether differences between both groups could be due to differences in gait change regarding the initial condition (at 2014/12/23), two sets of analyses were performed for data at 2015/02/18 and 2015/04/14, respectively by using Logistic Regression Analysis. The model included two independent variables: the initial value for each descriptor and the difference between the corresponding value at 2015/02/18 (or 2015/04/14) and the initial value. Bonferroni correction was also applied.

Str/ort mice [2] = test: Micro-CT of tibial trabecular and cortical bone in Str/ort mice; format: in vivo, mouse
Experimental: At 10-13 weeks of age, 21 male Str/ort mice (n=7/group) were assigned randomly to vehicle, hylin-betaine and xantho-betaine groups and were treated intraperitoneally 18 weeks with either vehicle (5% DMSO in 95% peanut oil), 50 mg/kg compound of Example 1 (“hylin-betaine”) in 5% DMSO and 95% peanut oil or 50 mg/kg compound of Example 2 (“xantho-betaine”) in 5% DMSO and 95% peanut oil. Micro-CT scanning and analysis were performed as described previously. Briefly, tibiae from vehicle, hylin-betaine and xantho-betaine treated groups were scanned using the Skyscan 1172 (Skyscan, Kontich, Belgium), with x-ray tube operated at 50 kV and 200 Micro-A, 1600 ms exposure time with a 0.5 mm aluminium filter and a voxel size of micro-m 5. The scanning time for each sample was approximately 2 hours. The slices were then reconstructed using NRecon 1.6.9.4 (Skyscan, Kontich, Belgium). 2D/3D analyses were performed using CTAn 1.15.4.0+ version software (Skyscan, Kontich, Belgium). Additionally, 3D visualization and production of colour-coded images of trabecular, cortical and skull bones were conducted using Avizo 9.0.0 software (FEI, Oregon USA). • a. Trabecular analysis: prior to analysis, Micro-CT images were re-oriented in DataViewer 1.5.0 (Skyscan, Kontich, Belgium), such that the cross-section within the transverse plane was perpendicular to the long axis of the bone. Tibial length was measured in CTAn 1.15.4.0+ software using a straight line measuring tool and the appearance of the trabecular ‘bridge’ connecting the two primary spongiosa bone ‘islands’ was set as reference point for analysis of the metaphyseal trabecular bone adjacent to the epiphyseal growth plate. 5% of the total bone length from this point (towards the diaphysis) was utilised for trabecular analysis of the proximal tibia. The trabecular region of interest was drawn freehand using the selection tool of CTAn, a few voxels away from the endocortical surfaces in order to avoid inclusion of remnants of primary spongiosa associated with cortical bone. The selected trabecular regions of interests were analysed using CTAn BatMan software (Skyscan, Kontich, Belgium) and morphometric parameters were recorded. • b. Whole bone cortical analysis: Whole bone analysis was performed on datasets derived from CT scans using BoneJ (version 1.4.0), an ImageJ plugin. Following segmentation, alignment and removal of fibula from the dataset, a minimum bone threshold was selected using a histogram based method in ImageJ which utilises all pixels in a stack to construct a histogram and was further confirmed using ImageJ “threshold function”. The threshold ranged between 22000-22100 and was applied to all datasets to separate higher density bone from soft tissues and air. This threshold was used in “Slice Geometry” function within BoneJ to calculate bone cross sectional area (CSA), second moment of area around the minor axis (Imin), second moment of area around the major axis (Imax), mean thickness determined by local thickness in two dimensions (Ct.Th), ellipticity and resistance to torsion (J). The most proximal (15%) and the most distal portions (25%) of tibial length were excluded from analysis, as these regions include trabecular bone.

[3] = 50 mg/kg intraperitoneally, 18 weeks

`COc1cc(O)c(CC=C(C)C)c(O)c1C(=O)/C=C/c1ccc(OC(=O)C[N+](C)(C)C)cc1.[Cl-]` [Xantho-betaine, (E)-2-(4-(3-(2,4-dihydroxy-6-methoxy-3-(3-methylbut-2-en-1-yl)phenyl)-3-oxoprop-1-en-1-yl)phenoxy)-N,N,N-trimethyl-2-oxoethanaminium chloride] was tested, and the “uptake into chondrosarcoma cells (intracellular fluorescence)” value (chondrosarcoma cells) was “taken up in a concentration dependent manner”, the “reduction of shedding of proteoglycan into the medium” value (bovine cartilage slices) was “more effective” and the “mice that refused to run (drop-out) during the gait studies” value (Str/ort mice [1]; [3]) was 2 mice. For the same compound, the “percentage of drop-out regarding the total number of runs” value (Str/ort mice [1]; [3]) was 13.3%, the “distribution of gait data (runs) by treatment group” value (“distribution of gait data (runs)” for short) (Str/ort mice [1]; 2014 Dec. 23) was 4 and the “distribution of gait data (runs)” value (Str/ort mice [1]; 2015 Apr. 14) was 5. The “distribution of gait data (runs)” value (Str/ort mice [1]; 2015 Feb. 18) was 4, the “effect on all gait descriptors” value (Str/ort mice [1]; any time point, compared with vehicle group) was “no significant effect” and the “metaphyseal trabecular bone architecture and mass (tibial length, BV/TV, TV, BV, eccentricity, thickness, separation, number)” value (Str/ort mice [2]; 50 mg/kg intraperitoneally, 18 weeks, vs vehicle) was “do not alter”. For the same compound, the “cortical cross-sectional area (CSA)” value (Str/ort mice [2]; apart from one distal region and a region close to tibio-fibula junction) was “do not significantly”, the “predicted tibial resistance to torsion (J)” value (Str/ort mice [2]; multiple regions across tibial length, vs vehicle) was “higher” and the “mean cortical cross-sectional thickness” value (Str/ort mice [2]; multiple regions from −15-60% tibial length, vs vehicle) was “higher in some regions and lower in other regions”. The “second moment of area around minor axis (Imin)” value (Str/ort mice [2]; vs vehicle, one region proximally) was “significantly lowers”, the tibial ellipticity (Str/ort mice [2]; vs vehicle, region ˜40-50% along the tibia) was “greater ellipticity” and the “second moment of area around major axis (Imax)” value (Str/ort mice [2]; vs vehicle, ˜35-55% of tibial length) was “significantly increased”.
